According to US4588817A, “Antibiotic nodusmicins” (priority 1984, dated 1986):
In brackets after ≈: the same amount, converted by molar mass. Like-named read-outs stand apart in the source and are kept apart here.

Key:
S. aureus UC-76 = test: MIC, microplate broth-dilution, S. aureus UC-76; details: Sensitive strain; BHI broth
S. aureus UC-570 = test: MIC, microplate broth-dilution, S. aureus UC-570; details: Sensitive strain; BHI broth
S. aureus UC-746 = test: MIC, microplate broth-dilution, S. aureus UC-746; details: Resistant to tetracycline; BHI broth
S. aureus UC 80 = test: agar diffusion (dipped disc) assay, zone of inhibition, S. aureus UC 80; details: 1 mg./ml. methanolic solution, 12.7 mm paper disc, 16 hours; NZ = no zone
S. lutea UC-130 = test: agar diffusion (dipped disc) assay, zone of inhibition, S. lutea UC-130; details: for zone of inhibition at 1000 µg/mL: Micrococcus luteus
[1] = solubility remark in the MIC test; details: in place of MIC values

| Molecule | MIC S. aureus UC-76 (S. aureus UC-76) [µg/mL] | Agar Diffusion S. aureus UC 80 (inhibition zone) (S. aureus UC 80) | insoluble [1] | other results |
| --- | --- | --- | --- | --- |
| 9-O--3-Furoyl- [U-61,461] | 0.50 | 35 | – | MIC S. aureus UC-570 (S. aureus UC-570): 0.25 µg/mL; MIC S. aureus UC-746 (S. aureus UC-746): 0.50 µg/mL; Agar Diffusion S. lutea UC-130 (inhibition zone) (S. lutea UC-130; 1 mg./ml. methanolic solution, 12.7 mm paper disc, 16 hours, NZ = no zone): 41 |
| COC1CC2C=CC3C4OC2(C(C)=CC(C)C(C(C)O)OC1=O)C3C(O)C(C)C4OC(=O)c1ccccc1 (stereo not drawn) [9-O--benzoyl-, 9-O-benzoyl-nodusmicin] | – | – | insoluble | – |
| COC1CC2C=CC3C4OC2(C(C)=CC(C)C(C(C)OC(=O)c2ccccc2)OC1=O)C3C(O)C(C)C4O (stereo not drawn) [18-O--benzoyl-, 18-O-benzoylnodusmicin] | – | – | – | zone of inhibition at 1000 µg/mL (S. lutea UC-130; UC130, 16 h, read-out: Agar Diffusion S. lutea UC-130 (inhibition zone)): 24 mm; zone of inhibition at 1000 µg/mL (S. lutea UC-130; UC130, read-out: zone of inhibition, S. lutea): 24 mm |
| COC1CC2C=CC3C4OC2(C(C)=CC(C)C(C(C)O)OC1=O)C3C(O)C(C)C4OC(=O)c1ccc[nH]1 (stereo not drawn) [U-59,760, 9-O-pyrrole-2-carbonyl ester of nodusmicin, reference compound] | 0.125 (≈ 0.242 µM) | 38 | – | – |
| COC1CC2C=CC3C4OC2(C(C)=CC(C)C(C(C)OC(=O)c2ccc[nH]2)OC1=O)C3C(O)C(C)C4OC(=O)c1ccc[nH]1 (stereo not drawn) [U-60,908, 9, 18-O--Dipyrrole-2-carbonyl-] | – | – | insoluble | – |
| COC1CC2C=CC3C4OC2(C(C)=CC(C)C(C(C)O)OC1=O)C3C(O)C(C)C4OC(=O)c1cc2ccccc2[nH]1 (stereo not drawn) [U-61,273, 9-O--Indole-2-carbonyl-] | – | – | insoluble | – |
